Assay results as given in patent publication US11230535B2, “CFTR regulators and methods of use thereof” (THE REGENTS OF THE UNIVERSITY OF CALIFORNIA, priority 2015, dated 2022).
Like-named read-outs stand apart in the source and are kept apart here. Positions of bridges follow the written chain, without caps; N, C: chain ends. Residues, ends and D or L forms follow the SMILES beside them.

Experiments:
[1] = biological target: T1, human wild-type CFTR (Homo sapiens, UniProt P13569); test: Short-circuit current in FRT cells expressing wild-type human CFTR; assay type: cell-based; set-up: expressed in transfected cells; conditions: 100% = 20 μM forskolin
T1 sequence (P13569 whole entry): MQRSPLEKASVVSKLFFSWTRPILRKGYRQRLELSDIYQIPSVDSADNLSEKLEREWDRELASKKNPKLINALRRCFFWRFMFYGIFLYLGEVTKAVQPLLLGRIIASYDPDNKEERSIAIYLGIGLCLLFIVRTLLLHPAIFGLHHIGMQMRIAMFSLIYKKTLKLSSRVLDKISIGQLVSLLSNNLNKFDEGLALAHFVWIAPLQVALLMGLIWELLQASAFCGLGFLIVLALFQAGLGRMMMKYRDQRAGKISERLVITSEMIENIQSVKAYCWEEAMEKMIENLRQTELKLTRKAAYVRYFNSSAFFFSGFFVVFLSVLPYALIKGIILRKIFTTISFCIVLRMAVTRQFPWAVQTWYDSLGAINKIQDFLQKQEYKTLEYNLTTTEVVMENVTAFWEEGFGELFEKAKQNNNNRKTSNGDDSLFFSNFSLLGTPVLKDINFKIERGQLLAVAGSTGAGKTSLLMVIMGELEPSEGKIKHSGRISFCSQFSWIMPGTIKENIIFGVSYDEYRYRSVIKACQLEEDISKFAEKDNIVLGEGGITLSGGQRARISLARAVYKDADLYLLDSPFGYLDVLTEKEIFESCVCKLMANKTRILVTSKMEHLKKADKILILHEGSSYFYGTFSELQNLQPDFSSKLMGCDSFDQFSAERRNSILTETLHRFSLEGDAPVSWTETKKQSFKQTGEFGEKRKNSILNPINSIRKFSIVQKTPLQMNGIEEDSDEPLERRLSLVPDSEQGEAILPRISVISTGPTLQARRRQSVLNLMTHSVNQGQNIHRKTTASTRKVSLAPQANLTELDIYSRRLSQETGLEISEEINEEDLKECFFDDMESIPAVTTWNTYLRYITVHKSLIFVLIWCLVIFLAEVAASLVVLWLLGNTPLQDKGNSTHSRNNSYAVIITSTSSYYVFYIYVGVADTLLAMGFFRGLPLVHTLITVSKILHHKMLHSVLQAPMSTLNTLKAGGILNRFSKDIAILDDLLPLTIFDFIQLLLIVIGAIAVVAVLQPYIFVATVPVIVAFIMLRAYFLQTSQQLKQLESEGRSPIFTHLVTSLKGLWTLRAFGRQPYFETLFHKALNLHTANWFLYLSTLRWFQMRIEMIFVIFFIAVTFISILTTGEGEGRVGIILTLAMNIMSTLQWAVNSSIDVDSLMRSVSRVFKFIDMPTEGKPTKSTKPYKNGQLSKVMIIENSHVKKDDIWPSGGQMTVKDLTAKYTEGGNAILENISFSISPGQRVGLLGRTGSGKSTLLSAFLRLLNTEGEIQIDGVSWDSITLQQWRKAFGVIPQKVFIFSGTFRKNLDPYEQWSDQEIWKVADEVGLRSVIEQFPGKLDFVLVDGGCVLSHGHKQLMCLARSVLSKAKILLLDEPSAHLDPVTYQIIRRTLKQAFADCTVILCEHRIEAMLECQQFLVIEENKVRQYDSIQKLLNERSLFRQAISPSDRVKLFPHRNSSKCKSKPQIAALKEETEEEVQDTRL
Description: Short-circuit current was measured in FRT cells stably expressing wild-type human CFTR cultured on porous filters as described. The basolateral solution contained 130 mM NaCl, 2.7 mM KCl, 1.5 mM KH2PO4, 1 mM CaCl2, 0.5 mM MgCl2, 10 mM glucose, and 10 mM Na-HEPES (pH 7.3, 37° C.). In the apical solution 65 mM NaCl was replaced by Na gluconate, and CaCl2 was increased to 2 mM, and the basolateral membrane was permeabilized with 250 μg/ml amphotericin B. Short-circuit current was measured in freshly harvested adult mouse colon at 37° C. using symmetrical Krebs-bicarbonate buffer.
(§1) Fischer rat thyroid (FRT) cells stably expressing wild-type human CFTR were cultured on Snapwell inserts (Corning Costar, Corning N.Y., USA) for short-circuit current (Isc) measurements. After 6-9 days in culture, when the transepithelial resistance was >1000 Ω/cm^2, the inserts were mounted in an Ussing chamber system (World Precision Instruments, Sarasota, Fla., USA). The basolateral solution contained 130 mM NaCl, 2.7 mM KCl, 1.5 mM KH2PO4, 1 mM CaCl2, 0.5 mM MgCl2, 10 mM glucose, and 10 mM Na-HEPES (pH 7.3). In the apical bathing solution, 65 mM NaCl was replaced by Na gluconate, and CaCl2 was increased to 2 mM. Both solutions were bubbled with air and maintained at 37° C. The basolateral membrane was permeabilized with 250 μg/ml amphotericin B (26, 27). Hemichambers were connected to a DVC-1000 voltage clamp via Ag/AgCl electrodes and 3 M KCl agar bridges for Isc recording.
Short-circuit current measurement. Short-circuit current was measured in FRT cells stably expressing wild-type human CFTR cultured on porous filters as described. The basolateral solution contained 130 mM NaCl, 2.7 mM KCl, 1.5 mM KH2PO4, 1 mM CaCl2, 0.5 mM MgCl2, 10 mM glucose, and 10 mM Na-HEPES (pH 7.3, 37° C.). In the apical solution 65 mM NaCl was replaced by Na gluconate, and CaCl2 was increased to 2 mM, and the basolateral membrane was permeabilized with 250 μg/ml amphotericin B. Short-circuit current was measured in freshly harvested adult mouse colon at 37° C. using symmetrical Krebs-bicarbonate buffer.
as §1, with “Short-circuit current. Fischer” for “Fischer”
Short-circuit current measurement. Short-circuit current measurements were done as described. Briefly, Snapwell (Corning Costar, Corning, N.Y.) inserts containing CFTR-expressing FRT cells or human bronchial epithelial cells were mounted in Ussing chambers (Physiological Instruments, San Diego, Calif.). For FRT cells the hemichambers were filled with 5 ml of HCO3^−-buffered solution (basolateral) and half-Cl^− solution (apical), and the basolateral membrane was permeabilized with 250 μg/ml amphotericin B. Symmetrical HCO3^−-buffered solutions were used for human bronchial epithelial cells. Solutions were bubbled with 95% O2/5% CO2 and maintained at 37° C., and short-circuit current was measured on a DVC-1000 voltage clamp (World Precision Instruments Inc., Sarasota, Fla.) using Ag/AgCl electrodes and 3 M KCl agar bridges.

[2] = system: CFTR activity at the ocular surface; test: Ocular surface potential difference (PD) in living mice; assay type: in vivo, mouse; conditions: CF mice lacking functional CFTR
Description: (§2) Open-circuit transepithelial PD were measured continuously in anesthetized mice in response to serial perfusions of different solutions over the ocular surface, as described (21). Mice were anesthetized with Avertin (2,2,2-tribromoethanol, 125 mg/kg intraperitoneal, Sigma-Aldrich, St. Louis, Mo., USA), and core temperature was maintained at 37° C. using a heating pad. Eyes were oriented with the cornea and conjunctiva facing upward and exposed by retracting the eyelid with cross-action forceps. Solutions were isosmolar (320±10 mOsM; compositions provided in ref. 21) and contained 10μ[…] Qindomethacin to prevent CFTR activation by prostaglandins. The ocular surface was perfused at 6 mL/min through plastic tubing using a multireservoir gravity pinch-valve system (ALA Scientific, Westbury, N.Y., USA) and variable-flow peristaltic pump (medium flow model; Fisher Scientific, Fair Lawn, N.J., USA). A probe catheter was fixed 1 mm above the cornea using a micropositioner and a suction cannula was positioned 3 mm from the orbit. The measuring electrode was in contact to the perfusion catheter and connected to a high-impedance voltmeter (IsoMilivolt Meter; WPI). The reference electrode was grounded via a winged 21-gauge needle filled with isosmolar saline, and inserted subcutaneously in the abdomen. Measuring and reference electrodes consisted of Ag/AgCl with 3 M KCl agar bridges.
An open-circuit potential difference (PD) method developed in our lab was used to evaluate compound activity at the ocular surface in vivo, as depicted in FIG. 3A (21). Cl^− channel function was quantified by measuring PD during continuous perfusion of the ocular surface with a series of solutions that imposed a transepithelial Cl^− gradient and contained various channel agonists and/or inhibitors. The ocular surface was first perfused with isosmolar saline to record the baseline PD. Amiloride was then added to the perfusate, followed by exchange to a low Cl^− solution in which Cl^− with an impermeant anion, gluconate. These maneuvers allow for direct visualization of CFTR activation in response to addition of candidate CFTR activators.
as §2, with “Ocular surface potential difference measurements. Open-circuit” for “Open-circuit”, “indomethacin” for “Qindomethacin”, “Measuring and reference electrodes consisted of Ag/AgCl with 3 M KCl agar bridges.” left out

[3] = biological target: T1, human wild-type CFTR; test: Cell-based plate reader (YFP iodide influx) assay of CFTR function; set-up: expressed in transfected cells; host or cells: Fischer rat thyroid (FRT) cells stably co-expressing YFP-H148Q; conditions: commercial analogs
Description: The initiate rate of I^− influx was computed by determined using exponential regression. All compound plates contained negative controls (DMSO vehicle) and positive controls (20 μM forskolin).
High-throughput screening. […] The initiate rate of I^− influx was computed by determined using exponential regression. All compound plates contained negative controls (DMSO vehicle) and positive controls ([…] forskolin).
Platereader assays of chloride channel function. CFTR activity was assayed as described. […] I^− influx was measured in a plate reader with initial baseline read for 2 s and then for 12 s after rapid addition of an I^−-containing solution. TMEM16A activity was assayed similarly as described using FRT cells co-expressing YFP and TMEM16A. Activity of non-TMEM16A CaCC was assayed as described in HT-29 cells expressing YFP. In each assay initial rates of I^− influx were computed as a linear measure of channel function.

[4] = system: constipation patients; conditions: cited from earlier work
[5] = system: loperamide-treated mice; test: Loperamide-induced mouse model of constipation (3-h stool weight, pellet number, water content); conditions: oral 0.5 mg/kg, loperamide-treated mice

Compound | CFTR activation, Vmax [1] [% Vmax] | change in ocular surface PD in CF mice [2] | % Activation ([3]; FRT cells with YFP and wildtype CFTR, 125 nM forskolin) [%] | EC50 ([3]; read-out: EC50 (full-dose response assay, compounds >80% activation)) [nM] | patients in whom the drug was effective ([4]; chronic constipation patients) [%] | stool output response as % of the maximal CFTRact-J027 response [5] [%] | patients in whom the drug was effective ([4]; IBS-C patients) [%]
CNc1nc(Nc2ccc([N+](=O)[O-])cc2)nc(OCC(F)(F)C(F)F)n1 [K032] | ~50 | no changes in PD | 105 | 70 | – | – | –
C[C@@H]1NC(=O)[C@@H]2CCCN2C(=O)[C@H](CC(N)=O)NC(=O)[C@@H]2CSSC[C@H](N)C(=O)N[C@H]3CSSC[C@H](NC1=O)C(=O)N[C@@H]([C@@H](C)O)C(=O)NCC(=O)N[C@H](C(=O)N[C@@H](Cc1ccc(O)cc1)C(=O)O)CSSC[C@H](NC(=O)[C@H](Cc1ccc(O)cc1)NC(=O)[C@H](CCC(=O)O)NC3=O)C(=O)N2 [linaclotide, reference compound] (H-CCEYCCNPACTGCY-OH; disulfide 1-6, 2-10, 5-13) | – | – | – | – | ~20 | 35 | –
CCCCC(F)(F)[C@@]1(O)CC[C@H]2[C@@H](CC(=O)[C@@H]2CCCCCCC(=O)O)O1 [lubiprostone, reference compound] | – | – | – | – | – | 50 | ~13
